According to US20240197814A1, “MATERIALS AND METHODS FOR THE PREVENTION AND TREATMENT OF VIRAL DISEASES” (priority 2021, published 2024):
Like-named read-outs stand apart in the source and are kept apart here.

What was measured:
Format in all cases: cell-based
HIV-1 IIIB = assay: In vitro HIV-1 prevention model, TZM-bl-FcRI cells, β-galactosidase; conditions: TZM-bl-FcRI cells, 0.1, 0.25 and 1 μM peptide, 48 h
Description: Sixty-seven (67) compounds from a library of peptides included in TABLE 1 were evaluated for inhibition of HIV-1 IIIB in TZM-bl-FcRI cells. The compounds were tested at three (3) concentrations with six (6) replicates each for efficacy and toxicity for 48 hours in this model. Virus was diluted 1:128, based on a previous titration. The test article was dissolved in DMSO to generate a stock solution, and dosing solutions were prepared by dilution of the stock solution using the appropriate volume of PBS. These dosing solutions were mixed with predetermined volumes of the virus suspension, based on the titration data, and were incubated for 30 min at 37° C./5% CO2.
Following incubation, the virus/compound mixture was added to pre-plated TZM-bl-FcRI cells and the necessary volume of assay media (based on the titration). The culture was incubated for six hours under the above conditions and then washed to remove residual virus and compound. The cultures were incubated for an additional 48 hours at 37° C./5% CO2 before measuring β-galactosidase in the wells using a chemiluminescent endpoint.
The study was carried out using a 96-well format. The first row of 12 wells was used as a negative control (cells with no virus or test compound added). […] Peptide 346-001 served as a positive control on each plate, such that three other test compounds could be evaluated per plate. […]

[1] = system: SARS-CoV-2 (2019-nCoV/USA-WA1/2020 strain); conditions: 60% confluent VERO E6, 48 h
[2] = system: SARS-CoV-2 (2019-nCoV/USA-WA1/2020 strain); conditions: 80% confluent VERO E6, 48 h
[3] = system: SARS-CoV-2 (2019-nCoV/USA-WA1/2020 strain); conditions: VERO E6, 48 h

Substance: Ac-SWLRDIWDWICEVLSDFKC(succinimido-propionylaminoethyl-mPEG2K)-NH2 (Ac-SWLRDIWDWICEVLSDFKC(succinimido‑propionylaminoethyl‑mPEG2K)-NH2) [Peptide 346-064]
- potency against HIV-1 compared with peptide 346-001 (HIV-1 IIIB): increase in potency

Substance: GSWLRDIWDWICEVLSDFK [Peptide 346-003]
- dose response curve shape [1]: unexpected and unusual dose response curve shape

Substance: SIWRDWVDLICEFLSDWK [Peptide 346-007]
- dose-response relationship [2]: steep dose response relationship
- potency relative to the other peptides tested [2]: ca. double

Substance: SWLRDIWDWICEVLSDFK [Peptide 346-001, virucidal amphipathic α-helical peptide derived from the hepatitis C virus (HCV) NS5A membrane anchor domain]
- reduction on viral copy numbers ([3]; 50 μM dosing concentration): > 5 orders of magnitude
- reduction on viral copy numbers ([3]; 125 μM dosing concentration): > 7 orders of magnitude
- potency against SARS-CoV-2 infection [3]: high potency
